In patent US20240269238A1, “Therapeutic Regimens and Methods for Reducing Body Weight in a Subject with Fatty Liver Disease using a GLP-1R and GCGR Agonist” (Spitfire Pharma LLC, priority 2022, published 2024):

Legend:
[1] = target: glucagon-like peptide 1 receptor (GLP-1R) (Homo sapiens, UniProt P43220); assay: cellular assay, agonist activity at GLP-1R; format: cell-based
Text: This disclosure relates to a dual agonist peptide(s) as well as pharmaceutical dosage formulations comprising, and methods for using, the same. The dual agonist peptides have affinity for, and in preferred embodiments about equal affinity for, glucagon-like peptide 1 receptor (GLP-1R) and glucagon receptor (GCGR), as may be determined using a cellular assay. In some embodiments, this disclosure provides pharmaceutical dosage formulations configured to induce weight loss in a human being with fatty liver disease. In some embodiments, the human being may, or may not, suffer from type 2 diabetes. In some embodiments, the disclosure provides pharmaceutical dosage formulations configured to reduce pathogenic plasma lipid mediators. As used herein, “pathogenic” serum lipid mediators, included but are not limited to the following reactive lipid species: malondialdehyde (MDA), isolevuglandins (IsoLG), methyglyoxal (MGO), 4-oxononenal (ONE), and 4-hydroxynonenal (HNE). Oxidized phospholipids include 1-palmitoyl-2-oxovaleroyl-sn-glycero-3-phosphorylcholine (POVPC), 1-O-alkyl-2-azelaoyl-sn-glycero-3-phophorylcholine (azPAF), 1-(Palmitoyl)-2-(5-keto-6-octene-dioyl) phosphatidylcholine (KOdiA-PC), 1-palmitoyl-2-F2-isoprostane-sn-glycero-3-phosphocholine (F2IsoP-PC), and 1-palmitoyl-2-(5,6)-epoxyisoprostane E2-sn-glycero-3-phosphocholine (PEIPC). […]

[2] = test system: liver fat content; assay: Phase 1b 24-week NAFLD study (Example 3): liver fat content and liver volume by MRI-PDFF; format: in vivo, human
Text: (§1) Provided herein is disclosure of a 12-week extension study of the study provided in Example 1, providing a 24-week a Phase 1b, randomized, double-blind, placebo-controlled study to assess the effects of pemvidutide (also termed herein as ALT-801), the safety of pemvidutide and effects on weight loss, hepatic fat fraction, anthropometric parameters, lipid metabolism, as well as inflammatory, fibrosis and other markers in diabetic and non-diabetic (type 2 diabetes) overweight and obese (BMI≥28.0 kg/m^2) subjects with NAFLD (defined as liver fat content (LFC) by MRI-PDFF ≥10%; absence of significant fibrosis, defined as FibroScan® LSM ≤10 kPa), alanine aminotransferase (ALT) and aspartate aminotransferase (AST) laboratory values of ≤75 IU/L and HbA1c <9.5. Men and women aged 18-65 years were studied. Diabetic subjects were defined as those that have undergone stable dose (≥3 months) metformin or SLGT-2 therapy and no use of insulin, sulfonylureas, DPP-4, GLP-1 treatment; Ninety-four (94) subjects were enrolled in the initial 12-week Phase 1b NAFLD trial and 83 subjects who completed were invited to receive a total of 12 additional weeks of blinded treatment. Of those subjects, 66 consented to rollover, of which 64 were eligible to participate.
(§2) The primary endpoint of this study was a reduction in liver fat content (LFC) by MRI-PDFF at Week 24 compared to Week 0 (zero). Key secondary endpoints include percent (%) weight loss at Week 24 compared to Week 0 (zero), and liver inflammation by alanine aminotransferase (ALT) levels and corrected T1 (cT1) imaging at Week 24 as compared to Week 0 (zero). Adverse events (AEs), including serious and severe AEs, AEs leading to discontinuation, GI tolerability, vital signs, and glycemic control including fasting glucose and HbA1c levels were also measured.

[3] = Phase 1b 24-week NAFLD study (Example 3): safety; format: in vivo, human; conditions: for serious and severe AE observed: unrelated to study medication
Text: as §1, §2

glucagon-like peptide 1 receptor (GLP-1R), sequence (P43220 24-463): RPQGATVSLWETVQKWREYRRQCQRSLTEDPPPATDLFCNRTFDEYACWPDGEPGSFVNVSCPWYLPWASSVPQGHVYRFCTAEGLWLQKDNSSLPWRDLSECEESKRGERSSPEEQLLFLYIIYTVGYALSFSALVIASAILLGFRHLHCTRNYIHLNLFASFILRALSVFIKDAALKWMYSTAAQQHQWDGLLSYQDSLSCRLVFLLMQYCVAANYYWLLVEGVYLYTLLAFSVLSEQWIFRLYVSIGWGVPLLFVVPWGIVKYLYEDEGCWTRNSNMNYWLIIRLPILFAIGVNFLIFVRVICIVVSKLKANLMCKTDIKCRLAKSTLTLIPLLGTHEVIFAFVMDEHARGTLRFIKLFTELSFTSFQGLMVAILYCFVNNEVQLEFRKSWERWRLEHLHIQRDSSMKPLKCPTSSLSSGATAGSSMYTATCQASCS

CC[C@H](C)[C@H](NC(=O)[C@H](Cc1ccccc1)NC(=O)[C@H](CCC(=O)O)NC(=O)[C@@H]1CCCCNC(=O)CC[C@H](NC(=O)[C@H](CC(=O)O)NC(=O)[C@H](CC(C)C)NC(=O)[C@H](Cc2ccc(O)cc2)NC(=O)[C@H](CCCCN)NC(=O)[C@H](CO)NC(=O)[C@H](Cc2ccc(O)cc2)NC(=O)[C@H](CC(=O)O)NC(=O)[C@H](CO)NC(=O)[C@@H](NC(=O)[C@H](Cc2ccccc2)NC(=O)[C@@H](NC(=O)CNC(=O)[C@H](CCC(N)=O)NC(=O)C(C)(C)NC(=O)[C@@H](N)Cc2c[nH]cn2)[C@@H](C)O)[C@H](C)O)C(=O)N[C@@H](CCCCNC(=O)C2O[C@@H](OCCCCCCCCCCCCCCCCCC(=O)O)C(O)C(O)[C@@H]2O)C(=O)N[C@@H](C)C(=O)N[C@@H](C)C(=O)N1)C(=O)N[C@@H](CCC(N)=O)C(=O)N[C@@H](Cc1c[nH]c2ccccc12)C(=O)N[C@@H](CC(C)C)C(=O)N[C@@H](CC(C)C)C(=O)N[C@@H](CCC(N)=O)C(=O)N[C@H](C(N)=O)[C@@H](C)O (some centres unmarked) [ALT-801, Pemvidutide]
EC50 [1]: ~0.04 nM | mean absolute reduction in liver fat (MRI-PDFF) ([2]; 1.2 mg per week, week 24): 11.2% | mean relative reduction in liver fat (MRI-PDFF) ([2]; 1.2 mg per week, week 24): 56.3% | liver fat of an exemplary subject (MRI-PDFF) ([2]; 1.8 mg dose, Week 24, 32.3% at baseline): 1.7% | mean absolute reduction in liver fat (MRI-PDFF) ([2]; 1.8 mg per week, week 24): 17% | mean relative reduction in liver fat (MRI-PDFF) ([2]; 1.8 mg per week, week 24): 75.2% | proportion of subjects with normalization (<=5%) in liver fat content ([2]; 1.8 mg, week 24): 53.8% | mean absolute reduction in liver fat (MRI-PDFF) ([2]; 2.4 mg per week, week 24): 15.6% | mean relative reduction in liver fat (MRI-PDFF) ([2]; 2.4 mg per week, week 24): 76.4% | proportion of subjects with normalization (<=5%) in liver fat content ([2]; 2.4 mg, week 24): 45.3% | relative liver fat reductions (study conclusion) ([2]; 24 weeks): greater than 75% | liver volume (MRI-PDFF) ([2]; all doses, week 24): robust reduction in liver volume | percentage of subjects achieving at least 30% and 50% reduction in liver fat content vs placebo ([2]; all doses, week 24): highly significant | serious and severe AE observed ([3]; 1.2 mg): Salmonella infection | serious and severe AE observed ([3]; 1.8 mg): hypertension >3 weeks post last dose of study medication | number of adverse events leading to treatment discontinuation ([3]; 24 weeks): low across the treatment group | overall safety and tolerability ([3]; 24 weeks): safe and tolerable | severity of gastrointestinal-related adverse events (nausea, vomiting, diarrhea, constipation) ([3]; 24 weeks): mild to moderate | significant ALT elevations ([3]; 24 weeks): No significant ALT elevations were reported | number of serious or severe adverse events ([3]; treatment groups, 24 weeks): low and comparable to the placebo group
